Active and inactive are the calls of the source. How the calls were made is not given here.
Tested on: B cell line, CD40 signaling inhibition reporter
Assay: inhibitors of CD40 signaling, dose response, B cell lineage (AID 1259332);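 further: cells stimulated with CD40 ligand tCD40L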;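 on activity change, negative = inhibition: 0% = neutral control wells and -100% = positive control wells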
Conditions: not given
Cn1cnc(CCNC(=O)C[C@@H]2CC[C@@H]3[C@H](COC[C@@H](O)CN3C(=O)Nc3ccc(C(F)(F)F)cc3)O2)c1 gave an AC50 of 8.76 µM.
Work on CC(=O)OC(C)(C)/C=C/C(=O)C(C)(O)C1C(O)CC2(C)C3CC=C4C(CC(O)C(=O)C4(C)C)C3(C)C(=O)CC12C (centres undefined) yielded an AC50 of 0.124 µM.
Work on COCC(C)n1c(C)cc(C(=O)COC(=O)c2cccn2C)c1C (centres undefined) yielded an AC50 of 3.06 µM.
Cc1ccc(N2CC(C(=O)Nc3nccs3)CC2=O)cc1Cl (centres undefined) showed an AC50 of 8.73 µM.
In the case of Cn1c(CO)nc2cc(N)ccc21, the AC50 is reported as > 20 µM (inactive).
CC(=O)OC1CC2(O)C3CCC4CC(O)CCC4(C)C3CCC2(C)C1C1=CC(=O)OC1 (centres undefined) showed an AC50 of 1.12 µM.
In the case of CC1CCOC(=O)C=CC=CC(=O)OC2CC3OC4C5OC5(C)C(O)CC4(COC(=O)C1O)C2(C)C31CO1 (centres undefined), the AC50 is reported as 0.0446 µM.
For CC[C@H]1CN2CCc3cc(OC)c(OC)cc3C2C[C@@H]1CC1NCCc2cc(OC)c(OC)cc21 (some centres undefined), the AC50 was 0.0205 µM.
For CC12CCC3C(CCC4(O)CC(O)CCC34C=NO)C1(O)CCC2C1=COC(=O)C1 (centres undefined), the AC50 was 0.586 µM.
Nc1ccc(-c2cccc3c(=O)cc(N4CCOCC4)oc23)cc1 showed an AC50 of 10.9 µM.
CC(NCC(O)COCCC12CC3CC(CC(C3)C1)C2)c1ccccc1 (centres undefined) gave an AC50 of 4.88 µM.
Clc1ccc(C(Cn2ccnc2)OCc2ccsc2Cl)c(Cl)c1 (centres undefined) gave an AC50 of 6.04 µM.
For C[C@@H]1CCCCO[C@@H](CN(C)Cc2ccc(Cl)c(Cl)c2)[C@H](C)CN([C@H](C)CO)C(=O)c2cc(NS(=O)(=O)c3cccs3)ccc2O1, the AC50 was 7.26 µM.
With Cc1csc(NC(=O)c2ccc(N3CCCC3=O)cc2)n1 the AC50 was 4.3 µM.
COc1ccc(S(=O)(=O)Nc2ccc3c(c2)C(=O)N([C@H](C)CO)C[C@@H](C)[C@@H](CN(C)Cc2ccc(C(F)(F)F)cc2)OCCCC[C@H](C)O3)cc1 showed an AC50 of 6.77 µM.
Nc1nc(=O)c2ccccc2s1 showed an AC50 of 8.69 µM.
For Cc1ccc(S(=O)(=O)N2CCCC2CNC(=O)c2ccc3c(c2)OCO3)cc1 (centres undefined), the AC50 was 3.91 µM.
Work on Oc1c(Cl)cc(Cl)cc1Sc1cc(Cl)cc(Cl)c1O yielded an AC50 of 7.67 µM.
CNc1c2cccc(C)c2nc2c(C(=O)NCCN(C)C)cccc12 gave an AC50 of 0.266 µM.
CC1OC(CC(=O)O)CC2=C1C(=O)c1c(O)cccc1C2=O (centres undefined) showed an AC50 of 0.204 µM.
Work on N#C[C@@H]1[C@H](c2ccc(C#CC3CCCC3)cc2)[C@H](CO)N1C(=O)Cc1ccccn1 yielded an AC50 of 9.08 µM.
Cc1ccc(CN2CC(C(=O)Nc3ncc(C)s3)CC2=O)cc1 (centres undefined) gave an AC50 of 4.99 µM.
Compound COc1ccc(C#Cc2ccc([C@H]3[C@H]4CN(C(=O)c5ccncc5)CCCCN4[C@H]3CO)cc2)cc1 has an AC50 of 11.2 µM.
Work on COc1ccc(S(=O)(=O)Nc2ccc3c(c2)C(=O)N([C@H](C)CO)C[C@@H](C)[C@@H](CN(C)Cc2ccc(C(F)(F)F)cc2)OCCCC[C@@H](C)O3)cc1 yielded an AC50 of 8.69 µM.
In the case of COc1c(-c2coc3cc4c(cc3c2=O)CC(O)C(C)(C)O4)ccc2c1C=CC(C)(C)O2 (centres undefined), the AC50 is reported as > 20 µM (inactive).
For O=C(COC(=O)c1ccccc1)c1ccc2c(c1)OCCO2, the AC50 was 0.926 µM.
Work on O=C(C1CCOCC1)N1CC(=O)N2[C@H](C1)[C@@H](c1ccc(C#CCc3ccccc3)cc1)[C@@H]2CO yielded an AC50 of 5.95 µM.
Compound CCN(CC)CCCNc1nc2ccccc2c2[nH]c3ccc(OC)cc3c12 has an AC50 of 1.1 µM.
Compound COc1cccc(/C=N/Nc2ccc(C(=O)O)cc2)c1O has an AC50 of 1.33 µM.
Cc1ccccc1-c1ccc2c(c1)O[C@@H](CN(C)C(=O)Nc1ccc(C(F)(F)F)cc1)[C@@H](C)CN([C@@H](C)CO)S2(=O)=O gave an AC50 of 10.5 µM.

Tested on: not listed separately
Assay: as above
Conditions: B cell line, CD40 signaling inhibition reporter; at 0.38 µM (top of the series)
In the case of c1ccc(CCSc2nccn2-c2ccccc2)cc1, the activity change, negative = inhibition is reported as 36.4% (inactive).
With C[C@H]1CN([C@@H](C)CO)C(=O)c2ccccc2-c2ccccc2CO[C@H]1CN(C)Cc1ccc(Oc2ccccc2)cc1 the activity change, negative = inhibition was 6.67% (inactive).

Same assay, conditions: B cell line, CD40 signaling inhibition reporter; at 3.5 µM (top of the series)
For CC1=CC(=O)c2ccccc2C1=O, the activity change, negative = inhibition was 11.2% (inactive).
In the case of Oc1cc2c(cc1C(c1ccc(Br)cc1)N1CCCC1)OCO2 (centres undefined), the activity change, negative = inhibition is reported as 16.1% (inactive).
In the case of CCCNC(=O)N1[C@H](C#N)[C@@H](c2ccc(-c3cccc(OC)c3)cc2)[C@H]1CO, the activity change, negative = inhibition is reported as 1.94% (inactive).
For N#C[C@@H]1[C@@H](c2ccccc2)[C@H](CO)N1C(=O)CN1CCOCC1, the activity change, negative = inhibition was -5.63% (inactive).
In the case of c1cncc(C2=NCCC2)c1, the activity change, negative = inhibition is reported as -2.83% (inactive).
For CC(C)(C)c1cc(/C=C(\C#N)C(N)=S)cc(C(C)(C)C)c1O, the activity change, negative = inhibition was 4.91% (inactive).
In the case of CCCNC(=O)c1cc2c(c(-c3cccc(-c4cc5ccccc5o4)c3)n1)[C@H](CCO)N(C(=O)NC(C)C)C2, the activity change, negative = inhibition is reported as 4.19% (inactive).
For Cc1ccc(-c2cc(C(=O)N3CC(C)OC(C)C3)c3ccccc3n2)o1 (centres undefined), the activity change, negative = inhibition was 26% (inactive).
For C[C@H]1CN([C@@H](C)CO)C(=O)c2c(c3ccccc3n2C)-c2ccccc2CO[C@H]1CN(C)S(=O)(=O)c1ccc([N+](=O)[O-])cc1, the activity change, negative = inhibition was -3.2% (inactive).
For COc1ccc(S(=O)(=O)N(C)C[C@@H]2Oc3ccc(NC(=O)Nc4ccc(C(F)(F)F)cc4)cc3C(=O)N([C@H](C)CO)C[C@H]2C)cc1, the activity change, negative = inhibition was -10.6% (inactive).
With N#Cc1cccc(-c2ccc([C@@H]3[C@H](CO)N4CCCCN(C(=O)Nc5cccc(F)c5)C[C@@H]34)cc2)c1 the activity change, negative = inhibition was 18.1% (inactive).
In the case of COc1ccc(CN2CC3(CN(C(=O)Cc4ccccc4)C3)c3c([nH]c4cc(OC)ccc34)[C@H]2CO)cc1, the activity change, negative = inhibition is reported as -3.26% (inactive).
In the case of COc1ccc(-c2cnc3c(c2)C(=O)N([C@H](C)CO)C[C@@H](C)[C@@H](CN(C)C(=O)Nc2c(C)noc2C)O3)cc1, the activity change, negative = inhibition is reported as -1.25% (inactive).
For C[C@@H]1CCCCO[C@@H](CN(C)CC2CCCCC2)[C@@H](C)CN([C@@H](C)CO)C(=O)c2cc(NC(=O)Nc3ccc(C(F)(F)F)cc3)ccc2O1, the activity change, negative = inhibition was -6.41% (inactive).
With O=C(NCCC(c1ccccc1)c1ccco1)c1cccs1 (centres undefined) the activity change, negative = inhibition was 25.6% (inactive).
In the case of COc1ccccc1C(=O)Nc1ccc2c(c1)C(=O)N(C)[C@H]1CC[C@H](CC(=O)Nc3cccc(C(C)C)c3)O[C@@H]1CO2, the activity change, negative = inhibition is reported as 12.5% (inactive).
With CCc1cnc(N2[C@H](C#N)[C@@H](c3ccc(C#CC(C)C)cc3)[C@H]2CO)s1 the activity change, negative = inhibition was 8.53% (inactive).
With O=C(Nc1ccc(C(F)(F)F)cc1)Nc1ccc2c(c1)[C@H]1C[C@@H](CC(=O)N3CCc4ccccc4C3)O[C@H](CO)[C@H]1O2 the activity change, negative = inhibition was 0.714% (inactive).
For O=C(CCN1CCC(c2ccccc2)C1)c1ccc2c(c1)OCCO2 (centres undefined), the activity change, negative = inhibition was 26.9% (inactive).
With C[C@H](CO)N1C[C@H](C)[C@H](CN(C)CC2CCCCC2)Oc2ccc(NC(=O)Nc3ccc(C(F)(F)F)cc3)cc2C1=O the activity change, negative = inhibition was 4.59% (inactive).
With N#C[C@@H]1[C@@H](c2ccccc2-c2ccccc2)[C@@H](CO)N1C(=O)NC1CCCC1 the activity change, negative = inhibition was 5.58% (inactive).
With N#C[C@H]1[C@@H](c2ccc(C#CC3CCCCC3)cc2)[C@@H](CO)N1C(=O)Nc1ccc(F)cc1 the activity change, negative = inhibition was 2.75% (inactive).

Same assay, conditions: B cell line, CD40 signaling inhibition reporter; at 10 µM (top of the series)
In the case of CCN(CC(=O)Nc1ccc(NC(C)=O)cc1)C(=O)C1CCCN(C(=O)c2ccc(Cl)cc2)C1 (centres undefined), the activity change, negative = inhibition is reported as 0.336% (inactive).
In the case of CCCCc1nc2ccccc2[nH]1, the activity change, negative = inhibition is reported as 2.81% (inactive).
With Fc1ccccc1/C=C1\CCCC2=C1Nc1nnnn1C2c1ccccc1F (centres undefined) the activity change, negative = inhibition was -1.53% (inactive).
In the case of C[C@@H]1CN([C@@H](C)CO)S(=O)(=O)c2ccc(C#Cc3ccccc3F)cc2O[C@H]1CN(C)C(=O)Cc1cccnc1, the activity change, negative = inhibition is reported as -17.7% (inactive).
In the case of CCSc1ccc(-c2cc(NC=O)c3ncc(-c4cccc(C(=O)N(C)C)c4)n3c2)cc1, the activity change, negative = inhibition is reported as 21.6% (inactive).
In the case of COc1cccc(S(=O)(=O)N(C)C[C@@H]2OCc3ccccc3-c3c(n(C)c4ccccc34)C(=O)N([C@@H](C)CO)C[C@@H]2C)c1, the activity change, negative = inhibition is reported as 8.02% (inactive).
With O=C1C(O)CC2c3ccccc3CC3(CCCC3)N12 (centres undefined) the activity change, negative = inhibition was 0.899% (inactive).
In the case of NS(=O)(=O)c1nn2cc(-c3ccccc3)nc2s1, the activity change, negative = inhibition is reported as -27.6% (inactive).
In the case of COc1cccc(OC)c1OCCNCC1COc2ccccc2O1 (centres undefined), the activity change, negative = inhibition is reported as 18.1% (inactive).
With CCCCn1c(NC(=O)c2ccc(Br)o2)c(S(=O)(=O)c2ccccc2)c2nc3ccccc3nc21 the activity change, negative = inhibition was 6.39% (inactive).
For C[C@@H]1CN([C@@H](C)CO)C(=O)c2c(c3ccccc3n2C)-c2ccccc2CO[C@@H]1CN(C)Cc1ccccc1C(F)(F)F, the activity change, negative = inhibition was 4.94% (inactive).
For CC(C)(C)n1cc(C(=O)c2ccc3ccccc3c2O)cn1, the activity change, negative = inhibition was -16.1% (inactive).
With COCCn1c(C)cc(C(=O)COC(=O)c2ccc(Br)o2)c1C the activity change, negative = inhibition was -11.7% (inactive).
With C[C@@H]1CN([C@@H](C)CO)C(=O)c2c(c3ccccc3n2C)-c2ccccc2CO[C@H]1CN(C)S(=O)(=O)c1ccc([N+](=O)[O-])cc1 the activity change, negative = inhibition was -6.57% (inactive).
With C[C@@H]1CN([C@@H](C)CO)C(=O)c2ccccc2-c2ccccc2CO[C@@H]1CN(C)C(=O)c1cc(Cl)cc(Cl)c1 the activity change, negative = inhibition was -6.79% (inactive).
For Cc1c(C(=O)c2cccc3ccccc23)c2cccc3c2n1[C@H](CN1CCOCC1)CO3, the activity change, negative = inhibition was -18.3% (inactive).
For Nc1cccc2nc3ccccc3cc12, the activity change, negative = inhibition was 22.5% (inactive).
In the case of OC(CCN1CCCCC1)c1ccc(-c2ccccc2)cc1 (centres undefined), the activity change, negative = inhibition is reported as 40.4% (inactive).
With Oc1cc(O)cc(/C=C/c2ccc(O)c(O)c2)c1 the activity change, negative = inhibition was -10.7% (inactive).
For COc1ccc(S(=O)(=O)N(C)C[C@@H]2Oc3ccc(NC(=O)Nc4ccc(C(F)(F)F)cc4)cc3C(=O)N([C@@H](C)CO)C[C@@H]2C)cc1, the activity change, negative = inhibition was 8.35% (inactive).
With CC(=O)Nc1nc2nc(-c3ccccc3)cc(-c3ccccc3)n2n1 the activity change, negative = inhibition was 6.86% (inactive).
With Cc1ccc2nc(-c3cc(-c4ccccc4)no3)cn2c1 the activity change, negative = inhibition was 34.4% (inactive).
In the case of O=C(Nc1ccccc1F)N1CCCCN2[C@H](CO)[C@H](c3ccc(/C=C/c4ccccc4)cc3)[C@H]2C1, the activity change, negative = inhibition is reported as -13.9% (inactive).
With O=C(NCc1ccccn1)C1CCCN(S(=O)(=O)c2ccccc2)C1 (centres undefined) the activity change, negative = inhibition was 8.97% (inactive).
In the case of COc1ccc(CN2CC3(CN(S(=O)(=O)c4ccc(C)cc4)C3)c3c([nH]c4cc(OC)ccc34)[C@H]2CO)cc1, the activity change, negative = inhibition is reported as -1.27% (inactive).

Source: PubChem BioAssay AID1259332 (Broad Institute, 2017)
